Test results from ChEMBL document CHEMBL4396913, “Synthesis and biological evaluation of hybrid quinolone-based quaternary ammonium antibacterial agents” (Eur J Med Chem, 2019).
Values after ≈ are worked out from the molar mass of the structure shown.

Key:
[1] = Lipophilicity, log k of the compound at 100 ug/ml by micellar electrokinetic chromatography; assay type: physicochemical
[2] = tested on: Staphylococcus aureus; test: Antibacterial activity against Staphylococcus aureus ATCC 6538 cultured in MH medium assessed as reduction in bacterial growth incubated for 48 hrs by microbroth dilution method; assay type: functional; details: ATCC 6538, 48 h
[3] = tested on: Staphylococcus aureus; test: Bactericidal activity against Staphylococcus aureus ATCC 6538 cultured in MH medium assessed as reduction in bacterial survival incubated for 48 hrs by microbroth dilution method; assay type: functional; details: ATCC 6538, 48 h
[4] = tested on: Staphylococcus aureus; test: Antibacterial activity against methicillin resistant Staphylococcus aureus N315 cultured in MH medium assessed as reduction in bacterial growth incubated for 48 hrs by microbroth dilution method; assay type: functional; details: N315, 48 h
[5] = tested on: Staphylococcus aureus; test: Bactericidal activity against methicillin resistant Staphylococcus aureus N315 cultured in MH medium assessed as reduction in bacterial survival incubated for 48 hrs by microbroth dilution method; assay type: functional; details: N315, 48 h
[6] = tested on: Staphylococcus epidermidis; test: Antibacterial activity against Staphylococcus epidermidis ATCC 14990 cultured in MH medium assessed as reduction in bacterial growth incubated for 48 hrs by microbroth dilution method; assay type: functional; details: ATCC 14990, 48 h
[7] = tested on: Staphylococcus epidermidis; test: Bactericidal activity against Staphylococcus epidermidis ATCC 14990 cultured in MH medium assessed as reduction in bacterial survival incubated for 48 hrs by microbroth dilution method; assay type: functional; details: ATCC 14990, 48 h
[8] = tested on: Enterococcus hirae; test: Antibacterial activity against Enterococcus hirae ATCC 1052 cultured in BHI medium assessed as reduction in bacterial growth incubated for 48 hrs by microbroth dilution method; assay type: functional; details: ATCC 1052, 48 h
[9] = tested on: Enterococcus hirae; test: Bactericidal activity against Enterococcus hirae ATCC 1052 cultured in BHI medium assessed as reduction in bacterial survival incubated for 48 hrs by microbroth dilution method; assay type: functional; details: ATCC 1052, 48 h
[10] = tested on: Bacillus spizizenii; test: Antibacterial activity against Bacillus subtilis ATCC 6633 cultured in MH medium assessed as reduction in bacterial growth incubated for 48 hrs by microbroth dilution method; assay type: functional; details: ATCC 6633, 48 h
[11] = tested on: Bacillus spizizenii; test: Bactericidal activity against Bacillus subtilis ATCC 6633 cultured in MH medium assessed as reduction in bacterial survival incubated for 48 hrs by microbroth dilution method; assay type: functional; details: ATCC 6633, 48 h
[12] = tested on: Escherichia coli; test: Antibacterial activity against Escherichia coli ATCC 8739 cultured in MH medium assessed as reduction in bacterial growth incubated for 48 hrs by microbroth dilution method; assay type: functional; details: ATCC 8739, 48 h
[13] = tested on: Escherichia coli; test: Bactericidal activity against Escherichia coli ATCC 8739 cultured in MH medium assessed as reduction in bacterial survival incubated for 48 hrs by microbroth dilution method; assay type: functional; details: ATCC 8739, 48 h
[14] = tested on: Pseudomonas aeruginosa; test: Antibacterial activity against Pseudomonas aeruginosa ATCC 9027 cultured in MH medium assessed as reduction in bacterial growth incubated for 48 hrs by microbroth dilution method; assay type: functional; details: ATCC 9027, 48 h
[15] = tested on: Pseudomonas aeruginosa; test: Bactericidal activity against Pseudomonas aeruginosa ATCC 9027 cultured in MH medium assessed as reduction in bacterial survival incubated for 48 hrs by microbroth dilution method; assay type: functional; details: ATCC 9027, 48 h
[16] = tested on: Proteus vulgaris; test: Antibacterial activity against Proteus vulgaris NCTC 4635 cultured in MH medium assessed as reduction in bacterial growth incubated for 48 hrs by microbroth dilution method; assay type: functional; details: NCTC 4635, 48 h
[17] = tested on: Proteus vulgaris; test: Bactericidal activity against Proteus vulgaris NCTC 4635 cultured in MH medium assessed as reduction in bacterial survival incubated for 48 hrs by microbroth dilution method; assay type: functional; details: NCTC 4635, 48 h
[18] = tested on: Staphylococcus aureus; test: Antibacterial activity against methicillin resistant Staphylococcus aureus 6347 cultured in MH medium assessed as reduction in bacterial growth incubated for 48 hrs by microbroth dilution method; assay type: functional; details: Staphylococcus aureus, 6347, 48 h
[19] = tested on: Staphylococcus aureus; test: Bactericidal activity against methicillin resistant Staphylococcus aureus 6347 cultured in MH medium assessed as reduction in bacterial survival incubated for 48 hrs by microbroth dilution method; assay type: functional; details: Staphylococcus aureus, 6347, 48 h
[20] = tested on: Staphylococcus epidermidis; test: Antibacterial activity against methicillin resistant Staphylococcus epidermidis ATCC 13199 cultured in MH medium assessed as reduction in bacterial growth incubated for 48 hrs by microbroth dilution method; assay type: functional; details: ATCC 13199, 48 h
[21] = tested on: Staphylococcus epidermidis; test: Bactericidal activity against methicillin resistant Staphylococcus epidermidis ATCC 13199 cultured in MH medium assessed as reduction in bacterial survival incubated for 48 hrs by microbroth dilution method; assay type: functional; details: ATCC 13199, 48 h
[22] = tested on: Streptococcus pneumoniae; test: Antibacterial activity against Streptococcus pneumoniae cultured in MH medium assessed as reduction in bacterial growth incubated for 48 hrs by microbroth dilution method; assay type: functional
[23] = tested on: Streptococcus pneumoniae; test: Bactericidal activity against Streptococcus pneumoniae cultured in MH medium assessed as reduction in bacterial survival incubated for 48 hrs by microbroth dilution method; assay type: functional
[24] = tested on: Serratia marcescens; test: Antibacterial activity against Serratia marcescens ATCC 12795 cultured in MH medium assessed as reduction in bacterial growth incubated for 48 hrs by microbroth dilution method; assay type: functional; details: ATCC 12795, 48 h
[25] = tested on: Serratia marcescens; test: Bactericidal activity against Serratia marcescens ATCC 12795 cultured in MH medium assessed as reduction in bacterial survival incubated for 48 hrs by microbroth dilution method; assay type: functional; details: ATCC 12795, 48 h
[26] = tested on: Escherichia coli; test: Antibacterial activity against […] Escherichia coli ATCC 8739 assessed as reduction in bacterial growth incubated for 48 hrs in presence of 50 ug/ml […], PAbetaN by microbroth dilution method; assay type: functional; details: ATCC 8739, 48 h
[27] = tested on: Escherichia coli; test: Bactericidal activity against […] Escherichia coli ATCC 8739 assessed as reduction in bacterial survival incubated for 48 hrs in presence of 50 ug/ml […], PAbetaN by microbroth dilution method; assay type: functional; details: ATCC 8739, 48 h
[28] = tested on: HEK293; test: Cytotoxicity against human HEK293 cells assessed as cell viability upto 20 uM incubated for 72 hrs by MTT assay; assay type: cell-based; details: hek293, 72 h
[29] = tested on: HEK293; test: Cytotoxicity against human HEK293 cells assessed as changes in cell morphology upto 20 uM incubated for 72 hrs by MTT assay; assay type: cell-based; details: hek293, 72 h

C[C@@H]1CN(c2c(F)c(N)c3c(=O)c(C(=O)O)cn(C4CC4)c3c2F)C[C@H](C)N1 [SPARFLOXACIN]
log K [1]: 0.1161
MIC [2]: 0.125 µg/mL (≈ 0.319 µM)
MBC [3]: 0.25 µg/mL (≈ 0.637 µM)
MIC [4]: 0.125 µg/mL (≈ 0.319 µM)
MBC [5]: 0.125 µg/mL (≈ 0.319 µM)
MIC [6]: 0.125 µg/mL (≈ 0.319 µM)
MBC [7]: 0.125 µg/mL (≈ 0.319 µM)
MIC [8]: 32 µg/mL (≈ 81.5 µM)
MBC [9]: 32 µg/mL (≈ 81.5 µM)
MIC [10]: 0.063 µg/mL (≈ 0.161 µM)
MBC [11]: 0.063 µg/mL (≈ 0.161 µM)
MIC [12]: 0.016 µg/mL (≈ 0.0408 µM)
MBC [13]: 0.032 µg/mL (≈ 0.0815 µM)
MIC [14]: 0.125 µg/mL (≈ 0.319 µM)
MBC [15]: 0.125 µg/mL (≈ 0.319 µM)
MIC [16]: 0.004 µg/mL (≈ 0.0102 µM)
MBC [17]: 0.008 µg/mL (≈ 0.0204 µM)
MIC [18]: 0.063 µg/mL (≈ 0.161 µM)
MBC [19]: 0.063 µg/mL (≈ 0.161 µM)
MIC [20]: 0.032 µg/mL (≈ 0.0815 µM)
MBC [21]: 0.032 µg/mL (≈ 0.0815 µM)
MIC [22]: 0.25 µg/mL (≈ 0.637 µM)
MBC [23]: 128 µg/mL (≈ 326 µM)
MIC [24]: 0.5 µg/mL (≈ 1.27 µM)
MBC [25]: 1 µg/mL (≈ 2.55 µM)

CC1=CC(C)=C(C(=O)O)C2=N[N+]3(CCN(c4cc5c(cc4F)c(=O)c(C(=O)O)cn5C4CC4)CC3)CN12.[Cl-]
log K [1]: -0.3214
MIC [2]: 128 µg/mL
MBC [3]: 128 µg/mL
MIC [4]: 32 µg/mL
MBC [5]: 32 µg/mL
MIC [6]: 64 µg/mL
MBC [7]: 64 µg/mL
MIC [8]: > 512 µg/mL
MIC [10]: 8 µg/mL
MBC [11]: 8 µg/mL
MIC [12]: 8 µg/mL
MBC [13]: 8 µg/mL
MIC [14]: 128 µg/mL
MBC [15]: 128 µg/mL
MIC [16]: 2 µg/mL
MBC [17]: 2 µg/mL
MIC [18]: 128 µg/mL
MBC [19]: 128 µg/mL
MIC [20]: 4 µg/mL
MBC [21]: 8 µg/mL
MIC [22]: > 512 µg/mL
MIC [24]: 64 µg/mL
MBC [25]: 64 µg/mL
MIC [26]: 0.5 µg/mL
MBC [27]: 2 µg/mL
Activity [28]: Non-Toxic
Activity [29]: Non-Toxic

CCn1cc(C(=O)O)c(=O)c2cc(F)c(N3CCNCC3)cc21 [NORFLOXACIN]
log K [1]: 0.1033
MIC [2]: 0.25 µg/mL (≈ 0.783 µM)
MBC [3]: 0.25 µg/mL (≈ 0.783 µM)
MIC [4]: 1 µg/mL (≈ 3.13 µM)
MBC [5]: 2 µg/mL (≈ 6.26 µM)
MIC [6]: 0.5 µg/mL (≈ 1.57 µM)
MBC [7]: 2 µg/mL (≈ 6.26 µM)
MIC [8]: 64 µg/mL (≈ 200 µM)
MBC [9]: 64 µg/mL (≈ 200 µM)
MIC [10]: 0.125 µg/mL (≈ 0.391 µM)
MBC [11]: 0.125 µg/mL (≈ 0.391 µM)
MIC [12]: 0.032 µg/mL (≈ 0.1 µM)
MBC [13]: 0.063 µg/mL (≈ 0.197 µM)
MIC [14]: 0.25 µg/mL (≈ 0.783 µM)
MBC [15]: 0.25 µg/mL (≈ 0.783 µM)
MIC [16]: 0.016 µg/mL (≈ 0.0501 µM)
MBC [17]: 0.016 µg/mL (≈ 0.0501 µM)
MIC [18]: 1 µg/mL (≈ 3.13 µM)
MBC [19]: 1 µg/mL (≈ 3.13 µM)
MIC [20]: 0.125 µg/mL (≈ 0.391 µM)
MBC [21]: 0.125 µg/mL (≈ 0.391 µM)
MIC [22]: 128 µg/mL (≈ 401 µM)
MBC [23]: > 512 µg/mL
MIC [24]: 0.25 µg/mL (≈ 0.783 µM)
MBC [25]: 0.25 µg/mL (≈ 0.783 µM)

COc1c(N2CC[N+]3(CN4C(=N3)C(C(=O)O)=Cc3ccccc34)C(C)C2)c(F)cc2c(=O)c(C(=O)O)cn(C3CC3)c12.[Cl-] (stereo not given)
log K [1]: -0.1255
MIC [2]: 16 µg/mL
MBC [3]: 16 µg/mL
MIC [4]: 32 µg/mL
MBC [5]: 32 µg/mL
MIC [6]: 32 µg/mL
MBC [7]: 32 µg/mL
MIC [8]: > 512 µg/mL
MIC [10]: 32 µg/mL
MBC [11]: 32 µg/mL
MIC [12]: 0.25 µg/mL
MBC [13]: 0.5 µg/mL
MIC [14]: 128 µg/mL
MBC [15]: 128 µg/mL
MIC [16]: 4 µg/mL
MBC [17]: 4 µg/mL
MIC [18]: 16 µg/mL
MBC [19]: 16 µg/mL
MIC [20]: 4 µg/mL
MBC [21]: 8 µg/mL
MIC [22]: 128 µg/mL
MBC [23]: 256 µg/mL
MIC [24]: 64 µg/mL
MBC [25]: 64 µg/mL
MIC [26]: 0.125 µg/mL
MBC [27]: 0.5 µg/mL
Activity [28]: Non-Toxic
Activity [29]: Non-Toxic
